Results on 22 compounds are retold here after patent US20250066389A1, “HETEROCYCLIC AMIDES AND METHODS OF USING THE SAME” (Rgenta Therapeutics, Inc., priority 2021, published 2025).

Counter-ions that a name gives are not always drawn.

The subject of one experiment is PMS1. The experiment in a line: Mini-Gene Reporter Assay—PMS1 (firefly luciferase mini-gene reporter transiently transfected into HEK293 cells). Particulars: Homo sapiens; at 5 uM; mini-gene firefly luciferase reporter in HEK293 cells; read-out: PMS1 % Effect at 5 uM. In kind it is cell-based. The source says: Example 76. Mini-Gene Reporter Assay—PMS1
Mini-gene reporter constructs for each target site can be constructed by first PCR amplifying the region-of-interest including the sequence of the alternatively skipped, sequences of the immediate upstream and downstream introns, and sequences of the immediate upstream and downstream exons. Then the 3′ end of the amplified sequence can be ligated to a firefly luciferase reporter gene and cloned into the pcDNA3.1 vector backbone. The final reporter construct can be transiently transfected into HEK293 cells using Lipofectamine 3000 transfection reagents. Compounds that can induce the inclusion of the skipped exon in the reporter construct would increase the reporter firefly luciferase activity.
Test compounds may be diluted in duplicates and dispensed into an assay plate. Transient mini-gene reporter cell line stock is resuspended and dispensed into the assay plate. Assay plates are then centrifuged and incubated. A luciferase reagent (e.g. ONE-Glo firefly luciferase reagent from Promega®) may be added to the assay plate and the luminescence (RLU) signals recorded. EC50 values may be determined by curve fitting in Levenberg-Marquardt algorithm.
In Table D below, A indicates a IC50 (μM)<1 μM, B indicates a IC50 (μM) 1 μM to <10 μM, and C indicates a IC50 (μM) 10 μM to <50 μM. In Table D below, A indicates a >75% Effect at 5 μM μM. B indicates a 50 to <75% Effect at 5 μM μM, and C indicates a <50% Effect at 5 μM.
With `CCOc1cn2nc(C)cc2cc1C(=O)Nc1ccc(N2CCNC(C)(C)C2)nn1` [Compound 755, N-(6-(3,3-dimethylpiperazin-1-yl)pyridazin-3-yl)-6-ethoxy-2-methylpyrazolo[1,5-a]pyridine-5-carboxamide hydrochloride], the activation at 5 µM is > 75%. The same measure, in the same setting: under `CCOc1cc2nn(C)cc2cc1C(=O)Nc1cnc(N[C@@H]2CCNC2)cn1` [Compound 376] stands > 75%; under `CCOc1cc2nn(C)cc2cc1C(=O)Nc1cnc(N2CC(N)C(C)(C)C2)nc1` (stereo not shown) [Compound 422], < 50%; under `CCOc1cn2nc(C)cc2cc1C(=O)Nc1cnc(N(C)C[C@H]2CCCN2)nc1` [Compound 575], < 50%. On the same count and under the same terms, to `CCOc1cc2nc(C)cn2cc1C(=O)Nc1cnc(N2CCNC(C)C2)cn1` (stereo not shown) [Compound 698] belongs > 75%; to `CCOc1cn2nc(C)cc2cc1C(=O)Nc1cnc(N2CC3(CCNCC3)C2)cn1` [Compound 548], > 75%; to `CCOc1cc2nn(C)cc2cc1C(=O)Nc1cnc(N2CCCC(C)(CN)C2)nc1` (stereo not shown) [Compound 435], < 50%.

As to `CCOc1cn2nc(C)cc2cc1C(=O)Nc1cnc(N2CCC(C3CCCNC3)CC2)nc1` (stereo not shown) [Compound 610], the activation at 5 µM was < 50%. On the same count and under the same terms, to `CCOc1cn2nc(C)cc2cc1C(=O)Nc1cnc(N2CCC(N)(CC)CC2)cn1` [Compound 502] belongs > 75%; to `CCOc1cc2nn(C)cc2cc1C(=O)Nc1cnc(NCC2CC3(CCNC3)CO2)nc1` (stereo not shown) [Compound 405], < 50%. On the same count and under the same terms, to `CCOc1cc2nn(C)cc2cc1C(=O)Nc1cnc(NCC(F)C2CCNCC2)nc1` (stereo not shown) [Compound 381] belongs < 50%; to `CCOc1cc2nc(C)cn2cc1C(=O)Nc1cnc(N2CCCC(NC)C2)cn1` (stereo not shown) [Compound 690], 50 to 75%.

Consider `COc1cc2nc(C)cn2cc1C(=O)Nc1ccc(N2CCC(NCC3CC3)CC2)cc1F` [Compound 136, N-(4-(4-((cyclopropylmethyl)amino)piperidin-1-yl)-2-fluorophenyl)-7-methoxy-2-methylimidazo[1,2-a]pyridine-6-carboxamide], for which the activation at 5 µM fell in the range of 50 to 75%. The same measure, in the same setting: to `CCOc1cn2nc(C)cc2cc1C(=O)Nc1cnc(N2CCOC3(CCNC3)C2)nc1` (stereo not shown) [Compound 577] belongs < 50%; to `CCOc1cn2nc(C)cc2cc1C(=O)Nc1cnc(N2CCCC(C)(CN)C2)nc1` (stereo not shown) [Compound 573], < 50%.

The same experiment, now with this note: Homo sapiens; mini-gene firefly luciferase reporter in HEK293 cells.
As usually defined, the IC50 is the midpoint of a concentration-inhibition curve. For the compound `CCOc1cc2nc(C)cn2cc1C(=O)Nc1ccc(N2CC3(CC(NC(C)C)CO3)C2)nn1` (stereo not shown) [Compound 298], the IC50 lay in the range of 1 to 10 µM. Regarding `CCOc1cc2nc(C)cn2cc1C(=O)Nc1ccc(N2CC[C@@H](NC(C)(C)C)C2)nn1` [Compound 723, (R)—N-(6-(3-(tert-butylamino)pyrrolidin-1-yl)pyridazin-3-yl)-7-ethoxy-2-methylimidazo[1,2-a]pyridine-6-carboxamide], the IC50 is 1 to 10 µM.

Consider `CCOc1cc2nc(C)cn2cc1C(=O)Nc1ccc(N2CCC3(CC2)CNC3)nn1` [Compound 287], for which the IC50 lay within 1 to 10 µM. Same read-out and setting: to `COc1cc2nc(C)cn2cc1C(=O)Nc1ccc(N2CCN[C@@H]3CC[C@@H]32)cc1F` (racemic) [Compound 174, rac-N-(4-((1R,6S)-2,5-diazabicyclo[4.2.0]octan-2-yl)-2-fluorophenyl)-7-methoxy-2-methylimidazo[1,2-a]pyridine-6-carboxamide] belongs < 1 µM; to `COc1cc2nn(C)cc2cc1C(=O)Nc1ccc(N2CCN[C@@H](C)C2)cc1F` [Compound 114, (S)—N-(2-fluoro-4-(3-methylpiperazin-1-yl)phenyl)-6-methoxy-2-methyl-2H-indazole-5-carboxamide HCl Salt], < 1 µM.

With `CCOc1cc2nc(C)cn2cc1C(=O)Nc1ccc(N2CCNC(CC(F)F)C2)nn1` (stereo not shown) [Compound 228], the IC50 was < 1 µM.

In turn, `CCOc1cc2nc(C)cn2cc1C(=O)Nc1ccc(N2CCC3(CCNCC3)C2)nn1` [Compound 273] returned an IC50 of 1 to 10 µM.
